Like-named read-outs stand apart in the source and are kept apart here.
How the values were obtained:
Assay in all cases: KINOMEscan
Type in all cases: binding
[1] = target: PRKD2 (Homo sapiens (Human), UniProt Q9BZL6); details: PRKD2, 10000 nM; read-out: Percent Control
[2] = target: CDK2 (Homo sapiens (Human), UniProt P24941); details: CDK2, 10000 nM; read-out: Percent Control
[3] = target: EGFR(T790M) (Homo sapiens (Human), UniProt P00533, T790M); details: 10000 nM, read-out: Percent Control
[4] = target: ACVR2A (Homo sapiens (Human), UniProt P27037); details: 10000 nM, read-out: Percent Control
Chain of ACVR2A (P27037 20-513): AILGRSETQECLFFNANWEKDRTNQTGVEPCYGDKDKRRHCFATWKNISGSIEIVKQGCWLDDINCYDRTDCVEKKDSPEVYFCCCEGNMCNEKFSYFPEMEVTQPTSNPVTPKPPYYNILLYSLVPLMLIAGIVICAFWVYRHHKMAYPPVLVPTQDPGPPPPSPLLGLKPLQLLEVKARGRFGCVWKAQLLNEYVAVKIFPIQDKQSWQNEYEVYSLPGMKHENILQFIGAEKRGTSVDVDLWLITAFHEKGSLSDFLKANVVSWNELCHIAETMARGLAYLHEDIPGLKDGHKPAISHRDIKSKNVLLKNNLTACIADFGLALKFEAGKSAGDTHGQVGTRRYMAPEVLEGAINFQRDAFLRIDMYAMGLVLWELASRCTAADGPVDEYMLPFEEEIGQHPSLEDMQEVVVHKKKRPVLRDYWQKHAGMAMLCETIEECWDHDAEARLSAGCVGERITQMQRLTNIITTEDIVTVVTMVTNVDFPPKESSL

[5] = target: PAK4 (Homo sapiens (Human), UniProt O96013); details: PAK4, 10000 nM; read-out: Percent Control
Chain of PAK4 (O96013 whole entry): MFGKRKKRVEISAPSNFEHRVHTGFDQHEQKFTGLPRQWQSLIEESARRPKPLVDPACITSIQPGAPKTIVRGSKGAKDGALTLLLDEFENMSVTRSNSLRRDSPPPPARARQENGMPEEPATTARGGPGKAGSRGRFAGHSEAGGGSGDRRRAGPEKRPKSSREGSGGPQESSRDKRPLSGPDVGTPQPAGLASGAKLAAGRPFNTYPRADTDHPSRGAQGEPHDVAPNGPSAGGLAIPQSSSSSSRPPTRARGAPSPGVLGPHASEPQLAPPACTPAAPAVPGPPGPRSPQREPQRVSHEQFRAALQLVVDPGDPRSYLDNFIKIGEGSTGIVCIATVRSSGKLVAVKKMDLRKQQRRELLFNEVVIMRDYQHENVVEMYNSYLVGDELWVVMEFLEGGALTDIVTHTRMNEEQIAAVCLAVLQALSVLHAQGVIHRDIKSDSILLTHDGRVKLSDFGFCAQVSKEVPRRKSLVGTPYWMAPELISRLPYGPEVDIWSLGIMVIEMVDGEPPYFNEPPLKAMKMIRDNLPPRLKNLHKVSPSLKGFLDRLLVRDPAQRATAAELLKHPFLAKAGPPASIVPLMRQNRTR

[6] = target: SGK (Homo sapiens (Human), UniProt O00141); details: 10000 nM, read-out: Percent Control
[7] = target: BMPR2 (Homo sapiens (Human), UniProt Q13873); details: BMPR2, 10000 nM; read-out: Percent Control
Chain of BMPR2 (Q13873 27-1038): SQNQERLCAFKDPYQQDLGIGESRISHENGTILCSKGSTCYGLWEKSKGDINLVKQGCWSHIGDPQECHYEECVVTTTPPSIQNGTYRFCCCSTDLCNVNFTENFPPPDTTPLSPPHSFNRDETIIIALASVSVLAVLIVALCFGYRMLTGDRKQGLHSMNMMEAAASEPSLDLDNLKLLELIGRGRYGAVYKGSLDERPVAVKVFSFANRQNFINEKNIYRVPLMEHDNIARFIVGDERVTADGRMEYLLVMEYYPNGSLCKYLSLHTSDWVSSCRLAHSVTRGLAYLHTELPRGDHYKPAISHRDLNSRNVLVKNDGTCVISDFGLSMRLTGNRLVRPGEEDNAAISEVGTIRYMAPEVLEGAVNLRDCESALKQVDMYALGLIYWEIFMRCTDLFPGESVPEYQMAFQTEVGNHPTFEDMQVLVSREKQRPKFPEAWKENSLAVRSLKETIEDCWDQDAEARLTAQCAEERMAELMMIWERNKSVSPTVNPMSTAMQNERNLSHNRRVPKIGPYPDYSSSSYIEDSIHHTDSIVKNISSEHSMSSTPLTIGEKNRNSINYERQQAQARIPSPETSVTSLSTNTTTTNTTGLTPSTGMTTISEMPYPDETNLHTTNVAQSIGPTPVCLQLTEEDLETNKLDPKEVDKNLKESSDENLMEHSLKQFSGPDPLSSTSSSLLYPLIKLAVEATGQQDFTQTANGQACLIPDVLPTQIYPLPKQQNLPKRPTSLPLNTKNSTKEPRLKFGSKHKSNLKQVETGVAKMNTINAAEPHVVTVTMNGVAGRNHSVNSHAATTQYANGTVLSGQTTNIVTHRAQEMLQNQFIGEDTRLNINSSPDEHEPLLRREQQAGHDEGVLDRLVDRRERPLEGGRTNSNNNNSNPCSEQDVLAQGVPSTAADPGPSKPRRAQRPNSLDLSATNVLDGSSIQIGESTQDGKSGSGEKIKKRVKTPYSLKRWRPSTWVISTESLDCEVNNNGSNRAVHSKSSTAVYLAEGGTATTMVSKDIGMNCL

[8] = target: TXK (Homo sapiens (Human), UniProt P42681); details: 10000 nM, read-out: Percent Control
[9] = target: AKT3 (Homo sapiens (Human), UniProt Q9Y243); details: AKT3, 10000 nM; read-out: Percent Control
[10] = target: NEK3 (Homo sapiens (Human), UniProt P51956); details: NEK3, 10000 nM; read-out: Percent Control
[11] = target: TBK1 (Homo sapiens (Human), UniProt Q9UHD2); details: TBK1, 10000 nM; read-out: Percent Control
[12] = target: CSNK1D (Homo sapiens (Human), UniProt P48730); details: 10000 nM, read-out: Percent Control
Chain of CSNK1D (P48730 whole entry): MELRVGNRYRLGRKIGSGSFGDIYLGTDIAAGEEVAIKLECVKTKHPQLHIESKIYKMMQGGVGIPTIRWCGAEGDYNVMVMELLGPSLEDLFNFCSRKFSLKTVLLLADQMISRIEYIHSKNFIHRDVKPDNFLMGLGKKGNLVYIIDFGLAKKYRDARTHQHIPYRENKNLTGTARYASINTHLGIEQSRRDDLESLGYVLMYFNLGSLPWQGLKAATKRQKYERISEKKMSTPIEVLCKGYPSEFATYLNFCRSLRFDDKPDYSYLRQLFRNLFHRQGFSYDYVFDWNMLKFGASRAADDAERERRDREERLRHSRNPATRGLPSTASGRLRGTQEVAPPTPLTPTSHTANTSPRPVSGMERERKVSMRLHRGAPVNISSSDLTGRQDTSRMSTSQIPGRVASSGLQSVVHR

[13] = target: NDR1 (Homo sapiens (Human), UniProt Q15208); details: NDR1, 10000 nM; read-out: Percent Control
Chain of NDR1 (Q15208 whole entry): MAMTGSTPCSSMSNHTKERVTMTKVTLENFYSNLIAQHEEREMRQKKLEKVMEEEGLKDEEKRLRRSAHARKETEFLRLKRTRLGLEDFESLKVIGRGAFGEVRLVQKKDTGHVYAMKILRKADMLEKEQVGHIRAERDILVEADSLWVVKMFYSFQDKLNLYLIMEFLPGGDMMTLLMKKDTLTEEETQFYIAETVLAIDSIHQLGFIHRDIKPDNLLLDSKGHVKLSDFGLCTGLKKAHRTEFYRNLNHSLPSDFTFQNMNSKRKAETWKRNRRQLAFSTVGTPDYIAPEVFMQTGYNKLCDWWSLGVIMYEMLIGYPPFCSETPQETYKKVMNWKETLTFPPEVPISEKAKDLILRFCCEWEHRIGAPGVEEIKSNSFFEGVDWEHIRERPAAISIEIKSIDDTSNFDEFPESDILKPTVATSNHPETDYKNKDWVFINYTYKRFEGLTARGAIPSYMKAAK

[14] = target: TSSK1B (Homo sapiens (Human), UniProt Q9BXA7); details: 10000 nM, read-out: Percent Control
[15] = target: MAP3K2 (Homo sapiens (Human), UniProt Q9Y2U5); details: MAP3K2, 10000 nM; read-out: Percent Control
[16] = target: CSNK1G3 (Homo sapiens (Human), UniProt Q9Y6M4); details: CSNK1G3, 10000 nM; read-out: Percent Control
[17] = target: TEC (Homo sapiens (Human), UniProt P42680); details: 10000 nM, read-out: Percent Control
[18] = target: KIT(D816V) (Homo sapiens (Human), UniProt P10721, D816V); details: 10000 nM, read-out: Percent Control
[19] = target: ROS1 (Homo sapiens (Human), UniProt P08922); details: ROS1, 10000 nM; read-out: Percent Control
[20] = target: KIT(V5S9D, V654A) (Homo sapiens (Human), UniProt P10721, V559D/V654A); details: 10000 nM, read-out: Percent Control
Chain of KIT(V5S9D, V654A) (P10721 544-976 V559D/V654A): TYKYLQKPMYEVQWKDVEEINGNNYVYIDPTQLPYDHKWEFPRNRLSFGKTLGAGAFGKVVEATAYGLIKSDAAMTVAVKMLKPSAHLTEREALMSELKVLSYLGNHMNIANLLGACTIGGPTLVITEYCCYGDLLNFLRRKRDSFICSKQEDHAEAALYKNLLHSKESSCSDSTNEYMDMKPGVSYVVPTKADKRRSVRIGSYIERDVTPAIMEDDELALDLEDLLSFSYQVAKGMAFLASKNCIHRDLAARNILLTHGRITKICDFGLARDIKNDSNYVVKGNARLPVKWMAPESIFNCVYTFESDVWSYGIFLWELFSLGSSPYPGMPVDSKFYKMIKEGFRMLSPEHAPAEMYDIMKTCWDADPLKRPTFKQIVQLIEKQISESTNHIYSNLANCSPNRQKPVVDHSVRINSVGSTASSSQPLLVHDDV

[21] = target: TAOK1 (Homo sapiens (Human), UniProt Q7L7X3); details: TAOK1, 10000 nM; read-out: Percent Control
[22] = target: CAMK4 (Homo sapiens (Human), UniProt Q16566); details: CAMK4, 10000 nM; read-out: Percent Control
[23] = target: EPHA3 (Homo sapiens (Human), UniProt P29320); details: EPHA3, 10000 nM; read-out: Percent Control
Chain of EPHA3 (P29320 21-983): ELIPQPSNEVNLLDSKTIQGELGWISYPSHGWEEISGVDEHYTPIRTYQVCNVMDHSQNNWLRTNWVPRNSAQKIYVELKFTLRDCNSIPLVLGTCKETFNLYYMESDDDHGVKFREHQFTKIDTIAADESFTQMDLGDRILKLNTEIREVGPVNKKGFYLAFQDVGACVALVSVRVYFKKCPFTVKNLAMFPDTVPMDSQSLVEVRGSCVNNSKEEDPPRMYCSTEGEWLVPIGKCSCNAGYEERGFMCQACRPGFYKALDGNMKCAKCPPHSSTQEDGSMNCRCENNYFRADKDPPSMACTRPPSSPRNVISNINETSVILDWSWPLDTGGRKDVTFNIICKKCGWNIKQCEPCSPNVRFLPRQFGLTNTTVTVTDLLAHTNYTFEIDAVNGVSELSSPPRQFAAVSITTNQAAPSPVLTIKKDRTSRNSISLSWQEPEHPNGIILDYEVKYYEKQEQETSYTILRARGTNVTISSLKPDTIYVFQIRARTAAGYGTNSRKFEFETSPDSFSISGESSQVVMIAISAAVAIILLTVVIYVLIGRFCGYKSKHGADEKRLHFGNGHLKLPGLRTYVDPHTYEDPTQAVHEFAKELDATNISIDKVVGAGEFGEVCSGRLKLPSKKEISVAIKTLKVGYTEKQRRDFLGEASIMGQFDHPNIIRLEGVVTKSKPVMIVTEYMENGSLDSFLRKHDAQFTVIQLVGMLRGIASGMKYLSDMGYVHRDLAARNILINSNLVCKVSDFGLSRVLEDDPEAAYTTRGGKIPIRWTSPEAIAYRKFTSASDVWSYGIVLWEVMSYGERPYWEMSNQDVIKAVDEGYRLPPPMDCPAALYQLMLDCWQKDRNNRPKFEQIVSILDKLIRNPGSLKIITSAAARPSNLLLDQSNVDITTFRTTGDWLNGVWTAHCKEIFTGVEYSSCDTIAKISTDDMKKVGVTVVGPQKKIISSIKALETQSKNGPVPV

[24] = target: CDKL2 (Homo sapiens (Human), UniProt Q92772); details: CDKL2, 10000 nM; read-out: Percent Control
[25] = target: MYO3B (Homo sapiens (Human), UniProt Q8WXR4); details: 10000 nM, read-out: Percent Control
[26] = target: GRK4 (Homo sapiens (Human), UniProt P32298); details: GRK4, 10000 nM; read-out: Percent Control
[27] = target: CDK4 (Homo sapiens (Human), UniProt P11802); details: CDK4, 10000 nM; read-out: Percent Control
[28] = target: ULK2 (Homo sapiens (Human), UniProt Q8IYT8); details: ULK2, 10000 nM; read-out: Percent Control
[29] = target: BIKE (Homo sapiens (Human), UniProt Q9NSY1); details: 10000 nM, read-out: Percent Control
[30] = target: AURKB (Homo sapiens (Human), UniProt Q96GD4); details: 10000 nM, read-out: Percent Control
[31] = target: IRAK3 (Homo sapiens (Human), UniProt Q9Y616); details: IRAK3, 10000 nM; read-out: Percent Control
[32] = target: PCTK3 (Homo sapiens (Human), UniProt Q07002); details: PCTK3, 10000 nM; read-out: Percent Control
[33] = target: LIMK2 (Homo sapiens (Human), UniProt P53671); details: LIMK2, 10000 nM; read-out: Percent Control
Chain of LIMK2 (P53671 whole entry): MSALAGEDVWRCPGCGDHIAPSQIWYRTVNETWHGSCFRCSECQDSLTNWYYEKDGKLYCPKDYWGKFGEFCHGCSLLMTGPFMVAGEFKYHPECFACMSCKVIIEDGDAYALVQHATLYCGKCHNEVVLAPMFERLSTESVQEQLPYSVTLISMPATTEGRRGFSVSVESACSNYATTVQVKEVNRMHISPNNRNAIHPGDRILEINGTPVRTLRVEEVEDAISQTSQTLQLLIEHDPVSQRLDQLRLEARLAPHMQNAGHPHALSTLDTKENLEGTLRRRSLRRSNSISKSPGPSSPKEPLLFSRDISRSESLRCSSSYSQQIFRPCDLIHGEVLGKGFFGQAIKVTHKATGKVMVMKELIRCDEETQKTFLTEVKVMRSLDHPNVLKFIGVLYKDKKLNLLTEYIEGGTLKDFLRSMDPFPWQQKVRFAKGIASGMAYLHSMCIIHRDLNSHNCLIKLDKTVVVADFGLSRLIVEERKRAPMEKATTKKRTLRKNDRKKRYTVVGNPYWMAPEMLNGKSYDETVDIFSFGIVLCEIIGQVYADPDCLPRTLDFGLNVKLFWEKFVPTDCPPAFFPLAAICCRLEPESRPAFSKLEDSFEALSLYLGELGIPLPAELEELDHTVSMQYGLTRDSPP

Compound | remaining binding at 10 µM [1] | remaining binding at 10 µM [2] | remaining binding at 10 µM [3] | remaining binding at 10 µM [4] | remaining binding at 10 µM [5] | remaining binding at 10 µM [6] | remaining binding at 10 µM [7] | remaining binding at 10 µM [8] | remaining binding at 10 µM [9] | remaining binding at 10 µM [10] | remaining binding at 10 µM [11] | remaining binding at 10 µM [12] | remaining binding at 10 µM [13] | remaining binding at 10 µM [14] | remaining binding at 10 µM [15] | remaining binding at 10 µM [16] | remaining binding at 10 µM [17] | remaining binding at 10 µM [18] | remaining binding at 10 µM [19] | remaining binding at 10 µM [21] | further results
COc1cc(N2CCC(N3CCN(C)CC3)CC2)ccc1Nc1ncc2c(n1)N(C)c1sc(C)nc1C(=O)N2 [Compound 3, 6-((2-methoxy-4-(4-(4-methylpiperazin-1-yl)piperidin-1-yl)phenyl)amino)-2,4-dimethyl-4,9-dihydro-10H-pyrimido[5,4-b]thiazolo[5,4-e][1,4]diazepin-10-one] | 72% | 81% | 100% | 76% | 65% | 100% | 100% | 73% | 100% | 88% | 71% | 54% | 97% | 74% | 100% | 87% | 69% | 11% | 74% | 100% | remaining binding at 10 µM ([20]; KIT(V5S9D, V654A)): 108%; remaining binding at 10 µM [22]: 98%; remaining binding at 10 µM [23]: 99%; remaining binding at 10 µM [24]: 75%; remaining binding at 10 µM [25]: 74%; remaining binding at 10 µM [26]: 72%; remaining binding at 10 µM [27]: 100%; remaining binding at 10 µM [28]: 100%; remaining binding at 10 µM [29]: 73%; remaining binding at 10 µM [30]: 100%; remaining binding at 10 µM [31]: 80%; remaining binding at 10 µM [32]: 90%; remaining binding at 10 µM [33]: 91%
COc1cc(N2CCC(N3CCN(C)CC3)CC2)ccc1Nc1ncc2c(n1)N(C)c1sc(C)nc1C(=O)N2C [Compound 5, 6-((2-methoxy-4-(4-(4-methylpiperazin-1-yl)piperidin-1-yl)phenyl)amino)-2,4,9-trimethyl-4,9-dihydro-10H-pyrimido[5,4-b]thiazolo[5,4-e][1,4]diazepin-10-one] | 46% | 100% | 93% | 97% | 100% | 100% | 100% | 99% | 100% | 100% | 88% | 87% | 98% | 68% | 100% | 100% | 100% | 100% | 75% | 80% | remaining binding at 10 µM ([20]; KIT(V559D, V654A)): 100%; remaining binding at 10 µM [22]: 100%; remaining binding at 10 µM [23]: 100%; remaining binding at 10 µM [24]: 95%; remaining binding at 10 µM [25]: 100%; remaining binding at 10 µM [26]: 97%; remaining binding at 10 µM [27]: 100%; remaining binding at 10 µM [28]: 81%; remaining binding at 10 µM [29]: 100%; remaining binding at 10 µM [30]: 99%; remaining binding at 10 µM [31]: 99%; remaining binding at 10 µM [32]: 98%; remaining binding at 10 µM [33]: 98%

Source: patent US12365696B2, “Small-molecule focal adhesion kinase (FAK) inhibitors” (DANA-FARBER CANCER INSTITUTE, INC., priority 2019, dated 2025)
